From ChEMBL document CHEMBL1138125, “A new chemical tool for exploring the role of the PDE4D isozyme in leukocyte function” (Bioorg Med Chem Lett, 2006)

Tests used:
[1] = molecular target: T1, 3',5'-cyclic-AMP phosphodiesterase 4D (Homo sapiens, UniProt Q08499); settings: Blood
Description: Inhibition of release of Eosinophil derived neurotoxin in human whole blood

[2] = molecular target: Phosphodiesterase 3 (Homo sapiens, UniProt Q14432+Q13370); experiment: Inhibition of PDE3; format: protein assay
[3] = molecular target: Beta-1 adrenergic receptor (Homo sapiens) (UniProt P08588); experiment: Binding affinity to adrenergic beta-1 receptor at 10 uM
[4] = molecular target: Adenosine receptor A2a (Homo sapiens) (UniProt P29274); experiment: Binding affinity to adenosine A2A receptor at 10 uM
[5] = molecular target: Muscarinic acetylcholine receptor M2 (Homo sapiens) (UniProt P08172); experiment: Binding affinity to Muscarinic M2 receptor at 10 uM
[6] = molecular target: High affinity cAMP-specific and IBMX-insensitive 3',5'-cyclic phosphodiesterase 8A (Homo sapiens, UniProt O60658); experiment: Inhibition of PDE8A
[7] = molecular target: High affinity cGMP-specific 3',5'-cyclic phosphodiesterase 9A (Homo sapiens, UniProt O76083); experiment: Inhibition of PDE9
[8] = molecular target: Melanocortin receptor 4 (Homo sapiens) (UniProt P32245); experiment: Binding affinity to MCR4 at 10 uM
[9] = molecular target: D(3) dopamine receptor (Homo sapiens) (UniProt P35462); experiment: Binding affinity to dopamine D3 receptor at 10 uM
[10] = molecular target: Platelet-activating factor receptor (Homo sapiens) (UniProt P25105); experiment: Binding affinity to platelet activating factor at 10 uM
[11] = molecular target: Sodium-dependent noradrenaline transporter (Homo sapiens) (UniProt P23975); experiment: Binding affinity to norepinephrine transporter at 10 uM
[12] = molecular target: Serotonin 3 (5-HT3) receptor (Homo sapiens) (UniProt P46098+A5X5Y0+O95264+Q70Z44+Q8WXA8); experiment: Binding affinity to serotonin 5HT3 receptor at 10 uM; format: protein-complex assay
[13] = molecular target: Adenosine receptor A1 (Homo sapiens) (UniProt P30542); experiment: Binding affinity to adenosine A1 receptor at 10 uM
[14] = molecular target: Type-1 angiotensin II receptor (Homo sapiens) (UniProt P30556); experiment: Binding affinity to angiotensin II receptor type 1 at 10 uM
[15] = Binding affinity to GABA transporter at 10 uM
[16] = molecular target: T2, Voltage-gated L-type calcium channel (Homo sapiens, UniProt Q13936+Q13698+Q01668+O60840); experiment: Binding affinity to verapamil sensitive calcium channel L type at 10 uM; format: protein assay
[17] = molecular target: Histamine H1 receptor (Homo sapiens) (UniProt P35367); experiment: Binding affinity to Histamine H1 receptor at 10 uM
[18] = molecular target: T1, 3',5'-cyclic-AMP phosphodiesterase 4D; experiment: Inhibition of PDE4D
[19] = molecular target: Sodium-dependent dopamine transporter (Homo sapiens) (UniProt Q01959); experiment: Binding affinity to dopamine transporter at 10 uM
[20] = molecular target: cAMP and cAMP-inhibited cGMP 3',5'-cyclic phosphodiesterase 10A (Homo sapiens, UniProt Q9Y233); experiment: Inhibition of PDE10
[21] = molecular target: cGMP-dependent 3',5'-cyclic phosphodiesterase (Homo sapiens, UniProt O00408); experiment: Inhibition of PDE2
[22] = molecular target: D(2) dopamine receptor (Homo sapiens) (UniProt P14416); experiment: Binding affinity to dopamine D2 receptor at 10 uM
[23] = molecular target: Muscarinic acetylcholine receptor M4 (Homo sapiens) (UniProt P08173); experiment: Binding affinity to Muscarinic M4 receptor at 10 uM
[24] = molecular target: Glutamate receptor ionotropic kainate (Homo sapiens) (UniProt P39086+Q16478+Q16099+Q13002+Q13003); experiment: Binding affinity to kainate receptor at 10 uM; format: protein-complex assay
[25] = molecular target: cGMP-specific 3',5'-cyclic phosphodiesterase (Homo sapiens, UniProt O76074); experiment: Inhibition of PDE5
[26] = molecular target: Acetylcholine receptor; alpha1/beta1/delta/gamma (Homo sapiens) (UniProt P02708+P07510+P11230+Q07001); experiment: Binding affinity to nicotinic muscle receptor at 10 uM; format: protein-complex assay
[27] = Binding affinity to GABA receptor at 10 uM
[28] = molecular target: 3',5'-cyclic-AMP phosphodiesterase 4A (Homo sapiens, UniProt P27815); experiment: Inhibition of PDE4A
[29] = molecular target: Glucocorticoid receptor (Homo sapiens) (UniProt P04150); experiment: Binding affinity to glucocorticoid receptor at 10 uM
[30] = molecular target: Muscarinic acetylcholine receptor M3 (Homo sapiens) (UniProt P20309); experiment: Binding affinity to Muscarinic M3 receptor at 10 uM
[31] = molecular target: Histamine H2 receptor (Homo sapiens) (UniProt P25021); experiment: Binding affinity to Histamine H2 receptor at 10 uM
[32] = molecular target: Mu-type opioid receptor (Homo sapiens) (UniProt P35372); experiment: Binding affinity to opiate mu receptor at 10 uM
[33] = molecular target: T1, 3',5'-cyclic-AMP phosphodiesterase 4D; experiment: Inhibition of release of LTE4 in human whole blood; format: functional, tissue-based
[34] = molecular target: B1 bradykinin receptor (Homo sapiens) (UniProt P46663); experiment: Binding affinity to bradykinin B1 receptor at 10 uM
[35] = molecular target: Kappa-type opioid receptor (Homo sapiens) (UniProt P41145); experiment: Binding affinity to opiate kappa receptor at 10 uM
[36] = molecular target: High affinity choline transporter 1 (Homo sapiens) (UniProt Q9GZV3); experiment: Binding affinity to choline transporter at 10 uM
[37] = molecular target: 3',5'-cyclic-AMP phosphodiesterase 4C (Homo sapiens, UniProt Q08493); experiment: Inhibition of PDE4C
[38] = molecular target: T1, 3',5'-cyclic-AMP phosphodiesterase 4D; experiment: cAMP elevation in U937 cells; format: functional, cell-based, U-937
[39] = molecular target: Beta-2 adrenergic receptor (Homo sapiens) (UniProt P07550); experiment: Binding affinity to adrenergic beta2 receptor at 10 uM
[40] = molecular target: 5-hydroxytryptamine receptor 1A (Homo sapiens) (UniProt P08908); experiment: Binding affinity to serotonin 5HT1A receptor at 10 uM
[41] = molecular target: 5-hydroxytryptamine receptor 7 (Homo sapiens) (UniProt P34969); experiment: Binding affinity to serotonin 5HT7 receptor at 10 uM
[42] = molecular target: Adrenergic receptor alpha-2 (Homo sapiens) (UniProt P08913+P18825+P18089); experiment: Binding affinity to Adrenergic alpha-2 receptor at 10 uM; format: protein assay
[43] = molecular target: Type-2 angiotensin II receptor (Homo sapiens) (UniProt P50052); experiment: Binding affinity to angiotensin II receptor type 2 at 10 uM
[44] = molecular target: 5-hydroxytryptamine receptor 4 (Homo sapiens) (UniProt Q13639); experiment: Binding affinity to serotonin 5HT4 receptor at 10 uM
[45] = molecular target: Vasopressin V2 receptor (Homo sapiens) (UniProt P30518); experiment: Binding affinity to vasopressin V2 receptor at 10 uM
[46] = molecular target: Thyroid hormone receptor (Homo sapiens) (UniProt P10827+P10828); experiment: Binding affinity to thyroid hormone receptor at 10 uM; format: protein-complex assay
[47] = molecular target: Substance-P receptor (Homo sapiens) (UniProt P25103); experiment: Binding affinity to neurokinin K1 receptor at 10 uM
[48] = test system: Cynomolgus monkey; experiment: Inhibition of eosinophil infiltration in bronchoalveolar lavage fluid from cynomolgus monkeys exposed to Ascaris suum.; format: functional, Macaca fascicularis, Lung
[49] = molecular target: Delta-type opioid receptor (Homo sapiens) (UniProt P41143); experiment: Binding affinity to opiate delta receptor at 10 uM
[50] = molecular target: Glutamate [NMDA] receptor (Homo sapiens) (UniProt Q05586+Q12879+Q13224+O15399+O60391+Q14957+Q8TCU5); experiment: Binding affinity to NMDA receptor at 10 uM; format: protein-complex assay
[51] = molecular target: T2, Voltage-gated L-type calcium channel; experiment: Binding affinity to dilitiazem sensitive calcium channel L type at 10 uM; format: protein assay
[52] = molecular target: Glutamate receptor ionotropic AMPA (Homo sapiens) (UniProt P48058+P42263+P42262+P42261); experiment: Binding affinity to AMPA receptor at 10 uM; format: protein-complex assay
[53] = molecular target: Voltage-dependent N-type calcium channel subunit alpha-1B (Homo sapiens) (UniProt Q00975); experiment: Binding affinity to calcium channel N type at 10 uM
[54] = molecular target: Adrenergic receptor alpha-1 (Homo sapiens) (UniProt P35348+P25100+P35368); experiment: Binding affinity to Adrenergic alpha-1 receptor at 10 uM; format: protein assay
[55] = molecular target: D(4) dopamine receptor (Homo sapiens) (UniProt P21917); experiment: Binding affinity to dopamine D4 receptor at 10 uM
[56] = molecular target: Adenosine receptor A3 (Homo sapiens) (UniProt P0DMS8); experiment: Binding affinity to adenosine A3 receptor at 10 uM
[57] = Binding affinity to nicotinic neuronal receptor at 10 uM
[58] = molecular target: T3, 3',5'-cyclic-AMP phosphodiesterase 4B (Homo sapiens, UniProt Q07343); experiment: Inhibition of release of TNF alpha in human whole blood; format: functional, tissue-based
[59] = molecular target: Vasopressin V1 receptor (Homo sapiens) (UniProt P37288+P47901); experiment: Binding affinity to vasopressin V1 receptor at 10 uM; format: protein assay
[60] = molecular target: D(1A) dopamine receptor (Homo sapiens) (UniProt P21728); experiment: Binding affinity to dopamine D1 receptor at 10 uM
[61] = molecular target: Histamine H3 receptor (Homo sapiens) (UniProt Q9Y5N1); experiment: Binding affinity to Histamine H3 receptor at 10 uM
[62] = molecular target: Muscarinic acetylcholine receptor M1 (Homo sapiens) (UniProt P11229); experiment: Binding affinity to Muscarinic M1 receptor at 10 uM
[63] = molecular target: T3, 3',5'-cyclic-AMP phosphodiesterase 4B; experiment: Inhibition of PDE4B
[64] = molecular target: T2, Voltage-gated L-type calcium channel; experiment: Binding affinity to DHP sensitive calcium channel L type at 10 uM; format: protein assay
[65] = molecular target: B2 bradykinin receptor (Homo sapiens) (UniProt P30411); experiment: Binding affinity to bradykinin B2 receptor at 10 uM
[66] = molecular target: High affinity cAMP-specific and IBMX-insensitive 3',5'-cyclic phosphodiesterase 8B (Homo sapiens, UniProt O95263); experiment: Inhibition of PDE8B
[67] = molecular target: Sodium-dependent serotonin transporter (Homo sapiens) (UniProt P31645); experiment: Binding affinity to serotonin transporter at 10 uM
[68] = molecular target: Dual 3',5'-cyclic-AMP and -GMP phosphodiesterase 11A (Homo sapiens, UniProt Q9HCR9); experiment: Inhibition of PDE11

T1 sequence (Q08499 whole entry): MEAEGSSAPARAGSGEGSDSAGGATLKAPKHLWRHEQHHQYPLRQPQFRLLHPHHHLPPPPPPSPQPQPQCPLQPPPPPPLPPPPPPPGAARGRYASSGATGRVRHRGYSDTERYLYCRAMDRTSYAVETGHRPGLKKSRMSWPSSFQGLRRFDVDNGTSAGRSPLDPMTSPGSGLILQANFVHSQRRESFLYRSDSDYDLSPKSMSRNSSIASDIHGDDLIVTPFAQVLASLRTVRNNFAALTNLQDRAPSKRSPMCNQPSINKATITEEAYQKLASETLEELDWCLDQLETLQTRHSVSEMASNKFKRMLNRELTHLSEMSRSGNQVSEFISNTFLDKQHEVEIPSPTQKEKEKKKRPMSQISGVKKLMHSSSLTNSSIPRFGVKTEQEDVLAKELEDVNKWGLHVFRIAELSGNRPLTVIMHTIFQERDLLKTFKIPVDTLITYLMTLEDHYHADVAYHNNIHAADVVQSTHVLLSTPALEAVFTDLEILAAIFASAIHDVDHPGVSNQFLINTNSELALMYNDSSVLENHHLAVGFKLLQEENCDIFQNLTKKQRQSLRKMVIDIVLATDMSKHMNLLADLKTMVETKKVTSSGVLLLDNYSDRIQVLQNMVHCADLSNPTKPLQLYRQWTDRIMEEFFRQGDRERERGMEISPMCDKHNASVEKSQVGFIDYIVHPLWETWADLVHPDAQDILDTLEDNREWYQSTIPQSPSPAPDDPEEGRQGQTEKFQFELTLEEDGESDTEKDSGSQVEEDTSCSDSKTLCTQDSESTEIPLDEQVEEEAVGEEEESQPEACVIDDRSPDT
T3 sequence (Q07343 whole entry): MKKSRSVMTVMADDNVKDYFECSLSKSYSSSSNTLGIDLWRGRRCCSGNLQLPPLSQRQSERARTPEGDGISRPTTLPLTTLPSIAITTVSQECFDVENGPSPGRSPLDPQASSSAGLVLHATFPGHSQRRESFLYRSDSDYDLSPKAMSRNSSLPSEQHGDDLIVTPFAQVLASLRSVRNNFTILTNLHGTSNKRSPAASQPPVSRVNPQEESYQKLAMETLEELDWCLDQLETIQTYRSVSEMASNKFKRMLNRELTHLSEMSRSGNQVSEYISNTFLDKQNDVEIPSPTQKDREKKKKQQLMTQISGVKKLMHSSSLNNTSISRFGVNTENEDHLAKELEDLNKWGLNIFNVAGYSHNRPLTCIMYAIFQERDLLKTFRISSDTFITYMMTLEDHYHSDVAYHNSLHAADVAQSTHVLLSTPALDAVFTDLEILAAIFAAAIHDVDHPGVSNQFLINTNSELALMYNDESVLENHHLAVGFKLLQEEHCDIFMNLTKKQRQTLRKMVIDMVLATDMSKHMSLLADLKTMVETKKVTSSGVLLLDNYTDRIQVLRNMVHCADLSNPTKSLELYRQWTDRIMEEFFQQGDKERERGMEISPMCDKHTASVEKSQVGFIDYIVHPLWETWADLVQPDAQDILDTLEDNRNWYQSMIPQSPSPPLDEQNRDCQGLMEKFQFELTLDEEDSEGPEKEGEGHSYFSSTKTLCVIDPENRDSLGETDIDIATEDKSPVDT
High affinity cAMP-specific and IBMX-insensitive 3',5'-cyclic phosphodiesterase 8A, sequence (O60658 whole entry): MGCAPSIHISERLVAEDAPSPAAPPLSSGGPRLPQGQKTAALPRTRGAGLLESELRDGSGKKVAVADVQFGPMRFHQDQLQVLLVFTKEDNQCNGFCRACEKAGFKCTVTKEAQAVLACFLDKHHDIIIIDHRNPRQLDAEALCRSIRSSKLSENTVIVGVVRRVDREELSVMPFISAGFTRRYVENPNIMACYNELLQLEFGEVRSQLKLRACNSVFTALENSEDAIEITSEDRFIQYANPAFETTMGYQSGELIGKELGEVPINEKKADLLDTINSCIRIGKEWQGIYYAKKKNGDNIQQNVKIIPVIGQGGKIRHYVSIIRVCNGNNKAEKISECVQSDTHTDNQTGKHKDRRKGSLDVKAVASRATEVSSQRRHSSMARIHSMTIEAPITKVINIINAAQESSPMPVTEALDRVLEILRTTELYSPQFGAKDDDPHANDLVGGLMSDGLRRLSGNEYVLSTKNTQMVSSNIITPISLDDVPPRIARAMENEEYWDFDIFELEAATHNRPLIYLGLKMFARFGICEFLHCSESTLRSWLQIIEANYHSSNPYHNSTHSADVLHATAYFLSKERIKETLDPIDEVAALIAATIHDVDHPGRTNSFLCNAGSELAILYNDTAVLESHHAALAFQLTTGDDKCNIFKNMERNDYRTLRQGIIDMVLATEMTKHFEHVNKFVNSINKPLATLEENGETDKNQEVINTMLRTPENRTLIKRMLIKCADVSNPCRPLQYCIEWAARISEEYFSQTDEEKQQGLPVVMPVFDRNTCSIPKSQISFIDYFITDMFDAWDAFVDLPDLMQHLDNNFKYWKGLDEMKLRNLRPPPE
High affinity cGMP-specific 3',5'-cyclic phosphodiesterase 9A, sequence (O76083 whole entry): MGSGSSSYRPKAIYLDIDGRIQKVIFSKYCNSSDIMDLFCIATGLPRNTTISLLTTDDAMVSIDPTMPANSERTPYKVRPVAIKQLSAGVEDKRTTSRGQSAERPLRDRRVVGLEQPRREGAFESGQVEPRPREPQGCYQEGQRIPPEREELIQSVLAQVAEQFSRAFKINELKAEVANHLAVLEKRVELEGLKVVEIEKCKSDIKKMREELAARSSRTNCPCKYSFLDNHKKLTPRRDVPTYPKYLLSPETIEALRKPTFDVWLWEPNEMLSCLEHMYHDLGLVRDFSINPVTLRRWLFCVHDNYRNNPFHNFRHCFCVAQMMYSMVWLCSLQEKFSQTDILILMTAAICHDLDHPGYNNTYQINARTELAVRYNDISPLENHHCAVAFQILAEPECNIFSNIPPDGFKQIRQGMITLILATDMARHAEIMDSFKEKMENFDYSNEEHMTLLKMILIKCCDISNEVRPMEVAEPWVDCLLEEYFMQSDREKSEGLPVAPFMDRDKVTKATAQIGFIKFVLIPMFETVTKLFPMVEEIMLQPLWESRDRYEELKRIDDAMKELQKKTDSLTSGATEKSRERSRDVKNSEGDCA
High affinity cAMP-specific and IBMX-insensitive 3',5'-cyclic phosphodiesterase 8B, sequence (O95263 whole entry): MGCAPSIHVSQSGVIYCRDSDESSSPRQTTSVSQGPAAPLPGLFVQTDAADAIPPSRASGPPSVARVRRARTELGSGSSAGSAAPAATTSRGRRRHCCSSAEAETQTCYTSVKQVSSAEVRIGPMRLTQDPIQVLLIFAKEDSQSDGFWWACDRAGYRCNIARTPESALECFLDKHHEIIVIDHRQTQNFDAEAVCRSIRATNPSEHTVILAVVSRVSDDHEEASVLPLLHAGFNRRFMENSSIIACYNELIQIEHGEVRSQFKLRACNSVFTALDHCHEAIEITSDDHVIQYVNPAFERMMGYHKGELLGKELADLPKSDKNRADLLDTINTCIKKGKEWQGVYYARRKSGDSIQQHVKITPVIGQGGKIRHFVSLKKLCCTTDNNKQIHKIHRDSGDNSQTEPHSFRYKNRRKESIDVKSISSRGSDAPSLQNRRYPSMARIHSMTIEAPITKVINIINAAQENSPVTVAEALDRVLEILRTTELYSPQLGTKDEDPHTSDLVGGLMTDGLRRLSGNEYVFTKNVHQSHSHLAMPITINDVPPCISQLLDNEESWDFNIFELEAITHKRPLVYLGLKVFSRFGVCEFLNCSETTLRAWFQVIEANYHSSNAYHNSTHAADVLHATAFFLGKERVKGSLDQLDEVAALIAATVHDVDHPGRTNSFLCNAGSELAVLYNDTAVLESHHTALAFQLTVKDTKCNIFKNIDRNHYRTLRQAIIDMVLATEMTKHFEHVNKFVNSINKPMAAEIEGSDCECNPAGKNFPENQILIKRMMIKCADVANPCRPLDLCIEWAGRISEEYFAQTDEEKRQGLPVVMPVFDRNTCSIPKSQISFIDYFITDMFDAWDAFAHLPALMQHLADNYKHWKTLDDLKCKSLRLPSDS
cGMP-dependent 3',5'-cyclic phosphodiesterase, sequence (O00408 whole entry): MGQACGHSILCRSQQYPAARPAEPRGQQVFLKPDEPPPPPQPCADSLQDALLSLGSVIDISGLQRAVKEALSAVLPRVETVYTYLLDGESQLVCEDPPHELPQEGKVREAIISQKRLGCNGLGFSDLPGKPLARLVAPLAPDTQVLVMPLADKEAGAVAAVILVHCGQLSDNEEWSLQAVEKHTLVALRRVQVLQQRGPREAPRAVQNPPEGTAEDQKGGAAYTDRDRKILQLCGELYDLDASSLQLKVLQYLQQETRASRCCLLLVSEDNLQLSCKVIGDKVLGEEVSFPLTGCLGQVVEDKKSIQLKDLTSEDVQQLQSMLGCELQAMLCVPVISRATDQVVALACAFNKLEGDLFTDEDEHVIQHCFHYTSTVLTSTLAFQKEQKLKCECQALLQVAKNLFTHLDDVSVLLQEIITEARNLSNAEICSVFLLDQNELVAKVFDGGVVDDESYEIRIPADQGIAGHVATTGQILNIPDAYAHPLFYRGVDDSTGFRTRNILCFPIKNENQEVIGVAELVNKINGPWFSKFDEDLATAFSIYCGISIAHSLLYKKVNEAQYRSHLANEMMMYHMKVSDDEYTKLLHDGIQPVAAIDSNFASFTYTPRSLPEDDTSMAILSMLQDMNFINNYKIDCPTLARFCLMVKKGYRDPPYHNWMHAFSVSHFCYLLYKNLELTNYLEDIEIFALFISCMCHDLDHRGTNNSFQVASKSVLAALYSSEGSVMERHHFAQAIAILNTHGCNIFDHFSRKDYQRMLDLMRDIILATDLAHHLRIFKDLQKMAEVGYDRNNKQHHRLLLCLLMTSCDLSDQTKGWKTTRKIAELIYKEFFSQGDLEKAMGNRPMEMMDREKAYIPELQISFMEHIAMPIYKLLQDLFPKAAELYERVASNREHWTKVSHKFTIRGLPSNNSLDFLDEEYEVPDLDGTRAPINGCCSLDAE

## C[C@@H](NC(=O)c1cccnc1Oc1ccc(F)cc1)c1cccs1
[1]
  IC30: 16 nM
[2]
  IC50: > 16000 nM
[3]
  Activity: 12%
[4]
  Activity: 23%
[5]
  Activity: 1%
[6]
  IC50: > 16000 nM
[7]
  IC50: > 16000 nM
[8]
  Activity: 22%
[9]
  Activity: 0%
[10]
  Activity: 23%
[11]
  Activity: 14%
[12]
  Activity: 4%
[13]
  Activity: 12%
[14]
  Activity: 3%
[15]
  Activity: 22%
[16]
  Activity: 0%
[17]
  Activity: 4%
[18]
  IC50: 4 nM
[19]
  Activity: 23%
[20]
  IC50: > 16000 nM
[21]
  IC50: > 16000 nM
[22]
  Activity: 0%
[23]
  Activity: 12%
[24]
  Activity: 0%
[25]
  IC50: > 16000 nM
[26]
  Activity: 22%
[27]
  Activity: 0%
[28]
  IC50: 107 nM
[29]
  Activity: 0%
[30]
  Activity: 5%
[31]
  Activity: 0%
[32]
  Activity: 15%
[33]
  IC50: 2 nM
[34]
  Activity: 0%
[35]
  Activity: 21%
[36]
  Activity: 60%
[37]
  IC50: 1380 nM
[38]
  EC50: 22 nM
[39]
  Activity: 6%
[40]
  Activity: 5%
[41]
  Activity: 0%
[42]
  Activity: 0%
[43]
  Activity: 0%
[44]
  Activity: 14%
[45]
  Activity: 9%
[46]
  Activity: 8%
[47]
  Activity: 27%
[48]
  Inhibition: 65%
[49]
  Activity: 18%
[50]
  Activity: 0%
[51]
  Activity: 6%
[52]
  Activity: 10%
[53]
  Activity: 0%
[54]
  Activity: 0%
[55]
  Activity: 9%
[56]
  Activity: 31%
[57]
  Activity: 3%
[58]
  IC50: 925 nM
[59]
  Activity: 26%
[60]
  Activity: 27%
[61]
  Activity: 0%
[62]
  Activity: 0%
[63]
  IC50: 185 nM
[64]
  Activity: 25%
[65]
  Activity: 0%
[66]
  IC50: > 16000 nM
[67]
  Activity: 0%

## COc1ccc(C2CNC(=O)C2)cc1OC1CCCC1 (centres undefined) [ROLIPRAM]
[1]
  IC30: 283 nM
[2]
  IC50: > 16000 nM
[6]
  IC50: > 16000 nM
[7]
  IC50: > 16000 nM
[21]
  IC50: > 16000 nM
[68]
  IC50: > 16000 nM
[66]
  IC50: > 16000 nM
